Test results reported in ChEMBL document CHEMBL5143608, “Peptide-based long-acting co-agonists of GLP-1 and cholecystokinin 1 receptors as novel anti-diabesity agents” (Eur J Med Chem, 2022).
Calls of active or inactive are those of the source. The calls are words filed in the database; no cut-off is given here.

Assays:
[1] = target: T1, CCK2R (gastrin/cholecystokinin type B receptor) (Homo sapiens, UniProt P32239); assay: Agonist activity at human CCK2R expressed in HEK293 cells assessed as ERK1/2 phosphorylation incubated for 5 mins by AlphaScreen assay; format: functional, cell-based; details: human, HEK293 cells expressing human CCK2R
T1 sequence (P32239 whole entry): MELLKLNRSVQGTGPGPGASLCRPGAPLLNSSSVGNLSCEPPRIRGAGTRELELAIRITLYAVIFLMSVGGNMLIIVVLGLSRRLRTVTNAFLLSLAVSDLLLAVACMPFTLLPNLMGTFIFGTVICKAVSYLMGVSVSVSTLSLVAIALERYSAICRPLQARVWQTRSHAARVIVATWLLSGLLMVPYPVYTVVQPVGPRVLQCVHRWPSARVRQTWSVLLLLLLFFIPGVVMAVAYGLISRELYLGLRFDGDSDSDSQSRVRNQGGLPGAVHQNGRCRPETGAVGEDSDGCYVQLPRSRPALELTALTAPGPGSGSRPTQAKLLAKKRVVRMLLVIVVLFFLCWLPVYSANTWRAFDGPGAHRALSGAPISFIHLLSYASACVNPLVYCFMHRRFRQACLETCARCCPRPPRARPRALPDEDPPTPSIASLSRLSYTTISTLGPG

[2] = Cmax in Sprague-Dawley rat at 25 nmol/kg, iv by LC-MS/MS analysis; format: ADME, organism-based; design: dose 25 nmol/kg, route iv; details: in vivo
[3] = Half life in Sprague-Dawley rat at 25 nmol/kg, iv by LC-MS/MS analysis; format: ADME, organism-based; details: in vivo
[4] = Cmax in Sprague-Dawley rat at 25 nmol/kg, sc by LC-MS/MS analysis; format: ADME, organism-based; design: dose 25 nmol/kg, route sc; details: in vivo
[5] = test system: Mus musculus; assay: Hypoglycemic activity in db/db mouse assessed as improvement in glucose tolerance at 25 nmol/kg, ip administered 30 min before oral glucose administration and measured upto 120 mins by OGTT; format: functional, organism-based
[6] = test system: Mus musculus; assay: Anti-diabesity activity in DIO C57BL/6 mouse assessed as reduction in body weight at 25 nmol/kg, sc administered every 2 days for 10 days; format: functional; details: C57BL/6, 240 h, time 10 day
[7] = Pancreatic insult activity in DIO C57BL/6 mouse assessed as increase in lipase level in plasma at 100 nmol/kg, sc administered once daily for 7 days; format: toxicity, organism-based; details: in vivo, 168 h, time 7 day
[8] = Hepatotoxicity in DIO C57BL/6 mouse assessed as aspartate aminotransferase level in plasma at 100 nmol/kg, sc administered once daily for 7 days; format: toxicity, organism-based; details: in vivo, 168 h, time 7 day
[9] = Hepatotoxicity in DIO C57BL/6 mouse assessed as alanine aminotransferase level in plasma at 100 nmol/kg, sc administered once daily for 7 days; format: toxicity, organism-based; details: in vivo, 168 h, time 7 day
[10] = test system: Mus musculus; assay: Anti-diabesity activity against DIO C57BL/6 mouse assessed as reduction in body weight at 25 nmol/kg, sc administered every 2 days for 3 weeks; format: functional; details: C57BL/6, 504 h, time 21 day
[11] = test system: Mus musculus; assay: Anti-diabesity activity against DIO C57BL/6 mouse assessed as reduction in cholesterol level in serum at 25 nmol/kg, sc administered every 2 days for 3 weeks; format: functional, organism-based; details: time 21.0 day
[12] = test system: Mus musculus; assay: Anti-diabesity activity against db/db mouse assessed as increase in islet area at 25 nmol/kg, sc administered every 2 days for 3 weeks by H and E staining based analysis; format: functional, organism-based; details: time 21.0 day
[13] = test system: Mus musculus; assay: Anti-diabesity activity against db/db mouse assessed as improvement in glucose tolerance at 25 nmol/kg, sc administered every 2 days for 12 weeks by OGTT; format: functional, organism-based
[14] = test system: Mus musculus; assay: Anti-diabesity activity in DIO C57BL/6 mouse assessed as reduction in body weight at 100 nmol/kg, sc administered every 2 days for 10 days; format: functional; details: C57BL/6, 240 h, time 10 day
[15] = test system: Mus musculus; assay: Anorectic activity in ICR mouse assessed as decrease in food intake at 25 nmol/kg, ip and measured after 24 hrs; format: functional, organism-based
[16] = test system: Mus musculus; assay: Anti-diabesity activity in db/db mouse assessed as improvement in glucose tolerance at 25 nmol/kg, ip pretreated for 15 mins with CCK-1R antagonist, Lorglumide followed by compound administration and 15 mins later treated with oral glucose and measured upto 120 mins by OGTT; format: functional, organism-based; details: time 135.0 min
[17] = test system: Mus musculus; assay: Anti-diabesity activity in db/db mouse assessed as decrease in cumulative food intake at 100 nmol/kg, sc administered once daily for 7 days; format: functional, organism-based; details: time 7.0 day
[18] = Renal toxicity in db/db mouse assessed as creatinine level in serum at 100 nmol/kg, sc administered once daily for 7 days; format: organism-based; details: in vivo, 168 h, time 7 day
[19] = Renal toxicity in db/db mouse assessed as blood urea nitrogen level at 100 nmol/kg, sc administered once daily for 7 days; format: organism-based; details: in vivo, 168 h, time 7 day
[20] = test system: Rattus norvegicus; assay: Anorectic activity in Sprague-Dawley rat assessed as reduction in food intake at 25 nmol/kg,ip measured after 24 hrs; format: functional
[21] = Renal toxicity in DIO C57BL/6 mouse assessed as creatinine level in serum at 25 nmol/kg, sc administered every 2 days for 3 weeks; format: organism-based; details: in vivo, 504 h, time 21 day
[22] = Hepatotoxicity in DIO C57BL/6 mouse assessed as aspartate aminotransferase level in serum at 25 nmol/kg, sc administered every 2 days for 3 weeks; format: toxicity, organism-based; details: in vivo, 504 h, time 21 day
[23] = Hepatotoxicity in DIO C57BL/6 mouse assessed as alanine aminotransferase level in serum at 25 nmol/kg, sc administered every 2 days for 3 weeks; format: toxicity, organism-based; details: in vivo, 504 h, time 21 day
[24] = test system: Mus musculus; assay: Anti-diabesity activity against db/db mouse assessed as HbA1c level at 25 nmol/kg, sc administered every 2 days for 3 weeks; format: functional, organism-based; details: time 21.0 day
[25] = test system: Mus musculus; assay: Anti-diabesity activity against db/db mouse assessed as improvement in glucose tolerance at 25 nmol/kg, sc administered every 2 days for 3 weeks by OGTT; format: functional, organism-based; details: time 21.0 day
[26] = test system: Mus musculus; assay: Anti-diabesity activity against db/db mouse assessed as reduction in HbA1c level at 25 nmol/kg, sc administered every 2 days for 12 weeks; format: functional, organism-based
[27] = test system: Mus musculus; assay: Anti-diabesity activity against db/db mouse assessed as improvement in glucose tolerance level at 25 nmol/kg, sc administered every 2 days for 6 weeks followed by saline treatment for 6 weeks and measured during first 6 weeks by OGTT; format: functional, organism-based
[28] = test system: Mus musculus; assay: Anti-diabesity activity against db/db mouse assessed as improvement in glucose tolerance level at 25 nmol/kg, sc administered every 2 days for 6 weeks followed by saline treatment for 6 weeks and measured during second 6 weeks by OGTT; format: functional, organism-based
[29] = test system: Mus musculus; assay: Anti-diabesity activity against db/db mouse assessed as reduction in HbA1c level at 25 nmol/kg, sc administered every 2 days for 6 weeks followed by saline treatment for 6 weeks and measured during first 6 weeks; format: functional, organism-based
[30] = test system: Mus musculus; assay: Anti-diabesity activity against db/db mouse assessed as reduction in HbA1c level at 25 nmol/kg, sc administered every 2 days for 6 weeks followed by saline treatment for 6 weeks and measured during second 6 weeks; format: functional, organism-based
[31] = test system: Mus musculus; assay: Anti-diabesity activity against db/db mouse assessed as increase in pancreas mass at 25 nmol/kg, sc administered every 2 days for 12 weeks; format: functional, organism-based
[32] = Pancreatic insult activity in db/db mouse assessed as increase in lipase level in serum at 25 nmol/kg, sc administered every 2 days for 12 weeks; format: toxicity, organism-based; details: in vivo, 2016 h
[33] = Pancreatic insult activity in db/db mouse assessed as increase in amylase level in serum at 25 nmol/kg, sc administered every 2 days for 12 weeks; format: toxicity, organism-based; details: in vivo, 2016 h

Compound | EC50 at 5 min [1] [nM] | Cmax [2] [ng/mL] | half-life [3] [h] | Cmax [4] [ng/mL] | Activity [5] | inhibition in vivo at 0.025 µmol/kg [6] [%] | Activity [7] | Activity [8] | Activity [9] | inhibition in vivo at 0.025 µmol/kg [10] [%] | Activity [11] | Activity [12] | Activity [13] | inhibition in vivo at 0.1 µmol/kg [14] [%] | Activity [15] | Activity [16] | Activity [17] | Activity [18] | Activity [19] | inhibition in vivo at 0.025 µmol/kg [20] [%] | other results
CCCC[C@H](NC(=O)[C@H](Cc1ccc(CS(=O)(=O)O)cc1)NC(=O)[C@H](CC(=O)O)NC(=O)COCCOCCNC(=O)COCCOCCNC(=O)[C@H](CCCCN)NC(=O)CNC(=O)[C@H](CCCCN)NC(=O)[C@@H](NC(=O)[C@H](CC(C)C)NC(=O)[C@H](Cc1c[nH]c2ccccc12)NC(=O)[C@H](CCC(=O)O)NC(=O)[C@@H](NC(=O)[C@H](Cc1ccccc1)NC(=O)[C@H](CCC(=O)O)NC(=O)[C@H](CCCCNC(=O)COCCOCCNC(=O)COCCOCCNC(=O)CC[C@H](NC(=O)CCCCCCCCCCCCCCCCC(=O)O)C(=O)O)NC(=O)[C@H](C)NC(=O)[C@H](C)NC(=O)[C@H](CCC(=O)O)NC(=O)[C@H](CCC(=O)O)NC(=O)[C@H](CCC(=O)O)NC(=O)[C@H](CC(C)C)NC(=O)[C@@H](NC(=O)[C@H](CCC(=O)O)NC(=O)[C@@H](NC(=O)[C@@H](NC(=O)[C@H](CC(=O)O)NC(=O)[C@H](CC(N)=O)NC(=O)[C@@H](NC(=O)[C@H](Cc1ccc(O)cc1)NC(=O)[C@@H](NC(=O)CNC(=O)[C@H](CCC(=O)O)NC(=O)C(C)(C)NC(=O)[C@@H](N)Cc1cnc[nH]1)[C@@H](C)O)[C@@H](C)O)C(C)C)[C@@H](C)O)[C@@H](C)O)[C@@H](C)CC)[C@@H](C)CC)C(=O)NCC(=O)N[C@@H](Cc1c[nH]c2ccccc12)C(=O)N[C@@H](CCCC)C(=O)N(C)[C@H](CC(=O)O)C(=O)N(C)[C@@H](Cc1ccccc1)C(N)=O | > 100 | 1660 | 9.1 | 461 | Active | 21.2 | Non-Toxic | Non-Toxic | Non-Toxic | 29.8 | Active | Active | Active | 30.6 | Active | Active | Active | Non-Toxic | Non-Toxic | 33 | Activity [21]: Non-Toxic; Activity [22]: Non-Toxic; Activity [23]: Non-Toxic; Activity [24]: Active; Activity [25]: Active; Activity [26]: Active; Activity [27]: Active; Activity [28]: Active; Activity [29]: Active; Activity [30]: Active; Activity [31]: Active; Activity [32]: Toxic; Activity [33]: Toxic
CCCC[C@H](NC(=O)[C@H](Cc1ccc(CS(=O)(=O)O)cc1)NC(=O)[C@H](CC(=O)O)NC(=O)COCCOCCNC(=O)COCCOCCNC(=O)[C@H](CCCNC(=N)N)NC(=O)CNC(=O)[C@H](CCCCN)NC(=O)[C@@H](NC(=O)[C@H](CC(C)C)NC(=O)[C@H](Cc1c[nH]c2ccccc12)NC(=O)[C@H](C)NC(=O)[C@@H](NC(=O)[C@H](Cc1ccccc1)NC(=O)[C@H](CCC(=O)O)NC(=O)[C@H](CCCCNC(=O)COCCOCCNC(=O)COCCOCCNC(=O)CC[C@H](NC(=O)CCCCCCCCCCCCCCCCC(=O)O)C(=O)O)NC(=O)[C@H](C)NC(=O)[C@H](C)NC(=O)[C@H](CCC(N)=O)NC(=O)CNC(=O)[C@H](CCC(=O)O)NC(=O)[C@H](CC(C)C)NC(=O)[C@H](Cc1ccc(O)cc1)NC(=O)[C@H](CO)NC(=O)[C@H](CO)NC(=O)[C@@H](NC(=O)[C@H](CC(=O)O)NC(=O)[C@H](CO)NC(=O)[C@@H](NC(=O)[C@H](Cc1ccccc1)NC(=O)[C@@H](NC(=O)CNC(=O)[C@H](CCC(=O)O)NC(=O)[C@H](C)NC(=O)[C@@H](N)Cc1cnc[nH]1)[C@@H](C)O)[C@@H](C)O)C(C)C)[C@@H](C)CC)C(C)C)C(=O)NCC(=O)N[C@@H](Cc1c[nH]c2ccccc12)C(=O)N[C@@H](CCCC)C(=O)N(C)[C@H](CC(=O)O)C(=O)N(C)[C@@H](Cc1ccccc1)C(N)=O | > 100 | 1680 | 6.3 | 341 | Active | 17.9 | Non-Toxic | Non-Toxic | Non-Toxic | 27.3 | Active | Active | Active | 27.1 | Active | Active | Active | Non-Toxic | Non-Toxic | 28 | Activity [21]: Non-Toxic; Activity [22]: Non-Toxic; Activity [23]: Non-Toxic; Activity [24]: Active; Activity [25]: Active; Activity [26]: Active; Activity [27]: Active; Activity [28]: Active; Activity [29]: Active; Activity [30]: Active; Activity [31]: Active; Activity [32]: Toxic; Activity [33]: Toxic
